For assay [1], the target named is T1, fusion protein containing GAL4-DNA-binding domain and ERR full-length (Homo sapiens, UniProt P11474).
T1 construct: expressed in transfected cells; host or cells: 293T cells
T1 sequence (P11474 1-423): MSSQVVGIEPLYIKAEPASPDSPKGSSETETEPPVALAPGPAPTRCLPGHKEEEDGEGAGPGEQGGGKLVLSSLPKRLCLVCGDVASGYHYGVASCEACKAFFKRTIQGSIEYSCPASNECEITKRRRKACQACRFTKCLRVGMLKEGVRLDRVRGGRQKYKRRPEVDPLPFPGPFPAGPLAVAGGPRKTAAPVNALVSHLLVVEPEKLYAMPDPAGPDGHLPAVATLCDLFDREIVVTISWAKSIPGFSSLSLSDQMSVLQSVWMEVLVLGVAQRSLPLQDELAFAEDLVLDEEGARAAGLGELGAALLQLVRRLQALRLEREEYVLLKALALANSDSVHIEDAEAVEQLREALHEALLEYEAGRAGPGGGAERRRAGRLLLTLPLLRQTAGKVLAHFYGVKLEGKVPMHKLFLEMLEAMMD
The assay can be described thus: Reporter assay system using 293T cells (GAL4-ERR luciferase, inverse agonist activity). It is filed as cell-based. Conditions: HEK-293T; compound final concentration 3 μM, 1 day; luciferase activity in 293T cells; no compound = 0%, 10 μM XCT-790 = 100%; read-out: inhibition rate (%) at 3 μM. Here is the method: Compound Evaluation in Reporter Assay System Using 293T Cells
293T cells were seeded in a 150 cm^2 flask by 6,000,000 cells, and cultured in a medium (DMEM medium containing 10% inactivated Fetal Bovine Serum sterile filtered (FBS), 50 μg/ml Gentamicin, 10 mM HEPES buffer (pH 7.4)) at 37° C. in the presence of 5% CO2 for 1 day.
Then, vector DNA having a gene encoding a fusion protein containing GAL4-DNA-binding domain and ERR full-length and a vector DNA wherein luciferase gene is fused at the downstream of GAL4-binding sequence were cotransfected by a lipofection method, and the cells were cultured at 37° C. in the presence of 5% CO2 for 1 day. The cells were recovered, sown in a 384 well plate by 15,000 cells, and cultured at 37° C. in the presence of 5% CO2 for 3 hr. Furthermore, 50 μM XCT-790 (final concentration 10 μM) or 15 μM compound (final concentration 3 μM) was added, and the cells were cultured at 37° C. in the presence of 5% CO2 for 1 day. The luciferase activity was measured by using a multiplate reader Envision (Perkin Elmer Inc.). The inverse agonist activity of the compound was calculated in percentage with the luciferase activity inhibited by no addition of compound as 0%, and with addition of final concentration 10 μM of XCT-790 (N-[5-(trifluoromethyl)-1,3,4-thiadiazol-2-yl]-2-cyano-3-[3-methoxy-4-[2,4-di(trifluoromethyl)benzyloxy]phenyl]propenamide) as 100%.
Background: Reporter assays use an easily measured gene product as a stand-in for the process of interest.

Assay [2] has as its target T2, GST-ERRα ligand-binding domain (Homo sapiens, UniProt P11474).
T2 sequence (P11474 193-421 limits assumed): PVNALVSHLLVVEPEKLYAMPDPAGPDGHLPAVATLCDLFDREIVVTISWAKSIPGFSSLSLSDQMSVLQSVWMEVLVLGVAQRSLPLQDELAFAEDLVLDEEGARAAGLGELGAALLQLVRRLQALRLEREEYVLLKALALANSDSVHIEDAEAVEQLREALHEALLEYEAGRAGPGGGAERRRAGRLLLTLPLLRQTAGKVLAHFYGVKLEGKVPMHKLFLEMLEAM
The assay can be described thus: HTRF assay system using ERRα ligand-binding domain (biotinylated SRC-1 (676-700) peptide). The following applies: compound final concentration 3 μM, room temperature 2 hr; 615/665 ratio value; no compound = 0%, 10 μM XCT-790 = 100%; read-out: inhibition rate (%) at 3 μM. It is filed as biochemical. On the procedure:
Compound Evaluation in HTRF Assay System Using ERRα Ligand-Binding Domain
An assay buffer (25 mM HEPES, 100 mM NaCl, 1 mM DTT, 0.1% BSA) containing 5 nM GST-ERRα ligand-binding domain (final concentration 1.25 nM) was added to a 384 well plate, then […] XCT-790 (final concentration 10 μM), or 12 μM compound (final concentration 3 μM) was added. Furthermore, an assay buffer containing XL665 conjugated Streptavidine, Eu^3+criptate conjugated GST antibody and 200 nM biotinylated SRC-1 (676-700) (final concentration 100 nM) was added, and the mixture was reacted at room temperature for 2 hr. Using Multiplate reader Envision (Perkin Elmer Inc.), after excitation at 320 nm, fluorescence values at 615 nm and 665 nm were measured. The inverse agonist activity of the compound was calculated in percentage with the 615/665 ratio value inhibited by no addition of compound as 0%, and with addition of final concentration 10 μM of XCT-790 (N-[5-(trifluoromethyl)-1,3,4-thiadiazol-2-yl]-2-cyano-3-[3-methoxy-4-[2,4-di(trifluoromethyl)benzyloxy]phenyl]propenamide) as 100%.
(In general: TR-FRET usually uses a lanthanide donor and a delayed reading to cut background.)

Assay [3] deals with ES-2 ovarian cancer cells. Kind of assay: Cell proliferation inhibitory test (CCK-8). Conditions: compound final concentration 10 μM, 72 hr; CCK-8 absorbance at 450 nm; DMSO alone = 0%, cell-free well with medium only = 100%; read-out: inhibition rate (%) at 10 μM. It is filed as cell-based. Here is the method:
Cell Proliferation Inhibitory Test
ES-2 ovarian cancer cells were seeded in a 96 well plate at 1×10^3 cells/well, and incubated at 37° C. in the presence of 5% CO2 for 24 hr. Then, the compound was added at a final concentration of 10 μM, and the cells were cultured at 37° C. in the presence of 5% CO2 for 72 hr. For activity measurement of viable cells, a CCK-8 reagent (Cell Counting Kit-8, DOJINDO) was added, the cells were incubated at 37° C. for 1.5 hr, and the absorbance at 450 nm was measured by a microplate reader. Assuming the dehydrogenase activity in the DMSO alone addition group as 0%, and that in a cell-free well containing only a medium as 100%, the dehydrogenase activity of the compound addition group was calculated in percentage.

Each structure is given as a SMILES string.

On to `CCN1C(=N)/C(=C/c2ccc(Oc3ccc(C#N)cc3C(F)(F)F)c(OC)c2)NC1=O` [Example 25, 4-{4-[(Z)-(1-ethyl-5-imino-2-oxoimidazolidin-4-ylidene)methyl]-2-methoxyphenoxy}-3-(trifluoromethyl)benzonitrile], for which the inhibition (as a rule, the relative decrease from the control value, in per cent) at 3 µM in assay [1] stood at 89%; in assay [2], 98%. Moreover, the inhibition at 10 µM in assay [3] is 61%.
As for `CCN1C(=N)/C(=C/c2ccc(OCc3ccc(C(F)(F)F)cc3C(F)(F)F)c(OC)c2)N(C)C1=O` [Example 32, (4Z)-4-[(4-{[2,4-bis(trifluoromethyl)benzyl]oxy}-3-methoxyphenyl)methylidene]-1-ethyl-5-imino-3-methylimidazolidin-2-one], the inhibition at 3 µM is 91% in assay [1] and 103% in assay [2]. Also, the inhibition at 10 µM in assay [3] was determined as 98%.
For the molecule `COc1cc(/C=C2\SC(=O)N=C2NCCC2CCCN2C)ccc1Oc1ccc(C#N)cc1C(F)(F)F` (stereo not drawn) [Example 93, 4-(2-methoxy-4-{(Z)-[4-{[2-(1-methylpyrrolidin-2-yl)ethyl]amino}-2-oxo-1,3-thiazol-5(2H)-ylidene]methyl}phenoxy)-3-(trifluoromethyl)benzonitrile], the inhibition at 3 µM is 88% in assay [1] and 105% in assay [2]. For the same molecule, the inhibition at 10 µM in assay [3] amounted to 101%.
For `CCN(CC)CCNC1=NC(=O)S/C1=C\c1ccc(Oc2ccc(C(F)(F)F)cc2Cl)c(OC)c1` [Example 94, (5Z)-5-({4-[2-chloro-4-(trifluoromethyl)phenoxy]-3-methoxyphenyl}methylidene)-4-{[2-(diethylamino)ethyl]amino}-1,3-thiazol-2(5H)-one], the inhibition at 3 µM in assay [1] turned out to be 90%; in assay [2], 107%. Also, in assay [3], the inhibition at 10 µM was 100%.
On to `COc1cc(/C=C2\SC(=O)N=C2NCCC2CCCN2C)ccc1Oc1ccc(C#N)c2ccccc12` (stereo not drawn) [Example 96, 4-(2-methoxy-4-{(Z)-[4-{[2-(1-methylpyrrolidin-2-yl)ethyl]amino}-2-oxo-1,3-thiazol-5(2H)-ylidene]methyl}phenoxy)naphthalene-1-carbonitrile], for which the values for the inhibition at 3 µM in assay [1] and in assay [2] were 87% and 114%, respectively. The inhibition at 10 µM in assay [3] stood at 102%.
For `COc1cc(/C=C2\SC(=O)N=C2NCC(C)(C)O)ccc1Oc1ccc(C#N)cc1C(F)(F)F` [Example 116, 4-{4-[(Z)-{4-[(2-hydroxy-2-methylpropyl)amino]-2-oxo-1,3-thiazol-5(2H)-ylidene}methyl]-2-methoxyphenoxy}-3-(trifluoromethyl)benzonitrile], the inhibition at 3 µM in assay [1] stood at 93%; in assay [2], 105%. Further, the inhibition at 10 µM in assay [3] came to 101%.
For `CCN1C(=N)/C(=C\c2ccc(Oc3ccc(C#N)cc3C(F)(F)F)c(OC)c2)N(C)C1=O` [Example 143, 4-{4-[(E)-(1-ethyl-5-imino-3-methyl-2-oxoimidazolidin-4-ylidene)methyl]-2-methoxyphenoxy}-3-(trifluoromethyl)benzonitrile], the inhibition at 3 µM came out at 94% in assay [1] and 92% in assay [2]. Further, in assay [3], the inhibition at 10 µM was 88%.
As to `CCN1C(=N)/C(=C/c2ccc(Oc3ccc(C#N)cc3C(F)(F)F)c(OC)c2)N(C)C1=O` [Example 145, 4-{4-[(Z)-(1-ethyl-5-imino-3-methyl-2-oxoimidazolidin-4-ylidene)methyl]-2-methoxyphenoxy}-3-(trifluoromethyl)benzonitrile], the inhibition at 3 µM came out at 95% in assay [1] and 93% in assay [2]. The inhibition at 10 µM in assay [3] was determined as 98%.

Source of the values: patent US20130040951A9, “PROPHYLACTIC OR THERAPEUTIC AGENT FOR CANCER” (Takeda Pharmaceutical Company Limited, priority 2009, published 2013).
